Laboratory results: patent US20230265151A1, “GIP/GLP1 CO-AGONIST COMPOUNDS” (priority 2020, published 2023)
Where two headings read alike, the source gives them in different places.

How the values were obtained:
hGCGR = molecular target: T1, hGCGR (Homo sapiens, UniProt P47871); test: Functional cAMP formation (HTRF) in HEK-293 clonal cells expressing hGCGR, 0.1% bovine casein, without or with 1.0% human serum albumin; format: cell-based; conditions: geometric mean, read-out: hGCGR EC50, nM (SEM, n)
T1 construct: expressed in transfected cells
T1 sequence (P47871 26-477): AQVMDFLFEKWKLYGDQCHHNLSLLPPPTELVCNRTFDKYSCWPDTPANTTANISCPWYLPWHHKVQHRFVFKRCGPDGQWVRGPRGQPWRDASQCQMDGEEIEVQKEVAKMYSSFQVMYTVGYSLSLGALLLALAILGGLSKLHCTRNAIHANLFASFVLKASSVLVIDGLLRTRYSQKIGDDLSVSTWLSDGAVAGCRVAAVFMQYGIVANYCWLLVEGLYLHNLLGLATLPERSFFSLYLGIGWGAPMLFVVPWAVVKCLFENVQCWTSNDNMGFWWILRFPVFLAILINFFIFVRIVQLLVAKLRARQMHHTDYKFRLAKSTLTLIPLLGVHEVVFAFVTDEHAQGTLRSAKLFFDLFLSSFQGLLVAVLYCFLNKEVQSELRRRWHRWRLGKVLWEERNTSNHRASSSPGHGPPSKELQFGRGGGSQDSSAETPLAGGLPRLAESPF
How it was run: (§1)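 Readings of the HTRF 665/620 nm ratio, which falls as cAMP rises, were converted to nM cAMP using a standard curve after 30 min peptide exposure at 37° C.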

hGLP-1R = hGLP-1R (Homo sapiens, UniProt P43220); test: Functional cAMP formation (HTRF) in HEK-293 clonal cells expressing hGLP-1R, 0.1% bovine casein, without or with 1.0% human serum albumin; format: cell-based; parameters: expressed in transfected cells; conditions: 0.1% bovine casein and 1.0% human serum albumin, 37° C.; geometric mean; read-out: hGLP-1R EC50, nM (SEM, n)
Sequence of hGLP-1R (P43220 24-463): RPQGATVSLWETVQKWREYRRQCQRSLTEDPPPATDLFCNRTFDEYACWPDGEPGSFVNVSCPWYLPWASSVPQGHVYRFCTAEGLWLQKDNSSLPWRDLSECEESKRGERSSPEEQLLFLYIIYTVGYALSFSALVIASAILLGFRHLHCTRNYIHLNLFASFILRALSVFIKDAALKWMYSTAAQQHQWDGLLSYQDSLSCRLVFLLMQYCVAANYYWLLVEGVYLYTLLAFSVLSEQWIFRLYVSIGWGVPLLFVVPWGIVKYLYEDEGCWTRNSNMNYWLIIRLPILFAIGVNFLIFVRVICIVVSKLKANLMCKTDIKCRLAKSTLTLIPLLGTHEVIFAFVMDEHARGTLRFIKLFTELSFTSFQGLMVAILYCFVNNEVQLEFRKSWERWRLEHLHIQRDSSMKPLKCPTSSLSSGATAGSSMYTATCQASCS
How it was run: as §1

hGIPR = molecular target: T2, hGIPR (Homo sapiens, UniProt P48546); test: Functional cAMP formation (HTRF) in HEK-293 clonal cells expressing hGIPR, 0.1% bovine casein, without or with 1.0% human serum albumin; format: cell-based; conditions: for EC50: geometric mean, read-out: hGIPR EC50, nM (SEM, n); for Emax: read-out: hGIPR Emax, % ± SEM
T2 construct: expressed in transfected cells
T2 sequence (P48546 22-466): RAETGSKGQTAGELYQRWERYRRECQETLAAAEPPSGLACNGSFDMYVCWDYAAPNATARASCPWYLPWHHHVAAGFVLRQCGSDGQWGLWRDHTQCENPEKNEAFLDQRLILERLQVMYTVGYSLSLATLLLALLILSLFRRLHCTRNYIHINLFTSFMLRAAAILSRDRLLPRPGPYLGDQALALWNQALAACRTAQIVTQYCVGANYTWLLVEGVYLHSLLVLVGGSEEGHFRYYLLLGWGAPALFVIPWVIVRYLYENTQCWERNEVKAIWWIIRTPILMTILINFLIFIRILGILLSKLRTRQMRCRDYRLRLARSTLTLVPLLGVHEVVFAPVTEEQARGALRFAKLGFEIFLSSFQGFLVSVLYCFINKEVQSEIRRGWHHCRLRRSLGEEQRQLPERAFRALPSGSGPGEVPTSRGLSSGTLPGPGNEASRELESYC
How it was run: as §1

[1] = molecular target: T3, human GIP receptor (hGIPR) (Homo sapiens, UniProt P48546); test: [125I]-GIP binding, SPA with membranes of CHO cells expressing hGIPR; conditions: human GIPR; geometric mean (SEM, n); read-out: Binding Affinity Ki, nM (SEM, n) hGIPR
T3 construct: expressed in transfected cells; crude membranes
T3 sequence (P48546 22-466): T2 sequence (P48546 22-466)
Experimental: Two methods are used for the preparation of crude cell membranes.
Method 1: Frozen cell pellets are lysed on ice in hypotonic buffer containing 50 mM Tris HCl, pH 7.5, and Roche Complete™ Protease Inhibitors with EDTA. […] The homogenate is centrifuged at 4° C. at 1100 × g for 10 minutes. The supernatant is collected and stored on ice while the pellets are resuspended in homogenization buffer and rehomogenized as described above. The homogenate is centrifuged at 1100 × g for 10 minutes. The second supernatant is combined with the first supernatant and centrifuged at 35000 × g for 1 hour at 4° C. The resulting membrane pellet is resuspended in homogenization buffer containing protease inhibitors at approximately 1 to 3 mg/mL, quick frozen in liquid nitrogen and stored as aliquots in a -80° C. freezer until use.
The homogenate is centrifuged at 4° C. at 1800 × g for 15 minutes. The supernatant is collected and stored on ice while the pellets are resuspended in homogenization buffer (without DNAse I) and rehomogenized as described above. The homogenate is centrifuged at 1800 × g for 15 minutes. The second supernatant is combined with the first supernatant and centrifuged an additional time at 1800 × g for 15 minutes. The overall supernatant is then centrifuged at 25000 × g for 30 minutes at 4° C. The resulting membrane pellet is resuspended in homogenization buffer (without DNAse I) containing protease inhibitors at approximately 1 to 3 mg/mL and stored as aliquots in a -80° C. freezer until use.
The binding buffer contains 25 mM HEPES, pH 7.4, 2.5 mM CaCl2, 1 mM MgCl2, 0.1% (w/v) bacitracin, 0.003% (w/v) TWEEN®-20, and Roche Complete™ Protease Inhibitors without EDTA. Peptides and GIP are thawed and 3 fold serially diluted in 100% DMSO (10 point concentration response curves). […] Plates are sealed and mixed on a plate shaker (setting 6) for 1 minute and read with a PerkinElmer Trilux MicroBeta® scintillation counter after 2.5 to 12 hours of incubation/settling time at room temperature.
Raw CPM data for concentration curves of peptides, Gcg, GLP-1, or GIP are converted to percent inhibition by subtracting nonspecific binding (binding in the presence of excess unlabeled Gcg, GLP-1, or GIP, respectively) from the individual CPM values and dividing by the total binding signal, also corrected by subtracting nonspecific binding. Data are analyzed using four-parameter (curve maximum, curve minimum, IC50, Hill slope) nonlinear regression routines (Genedata Screener, version 12.0.4, Genedata AG, Basal, Switzerland). […] Values for Ki are reported as the geometric mean, with error expressed as the standard error of the mean (SEM) and n is equal to the number of independent replicates (determined in assays performed on different days). Geometric Means are calculated as follows: […]
The Ki Ratio (Ki for native control peptide/Ki for test compound) at each receptor and each species is calculated. The Ki Ratio is a rapid indication of the apparent affinity of a peptide compared to the native control peptide.
n=⅟x means that only one value out of the total number of replicates (x) is used to express the mean. SEM is only calculated when n=2 or greater non-qualified results exist. Means are expressed as GeoMetric means with the standard error of the mean (SEM) and the number of replicates (n) indicated in parenthesis.

[2] = 0.1% bovine casein and 1.0% human serum albumin, 37° C.
[3] = cAMP, incubated at 37° C., 0.1% bovine casein (no human serum albumin)
[4] = HEK293, 0.1% bovine casein and 1.0% human serum albumin, 37° C., percent of maximal response to GIP(1-42)NH2

| SMILES | EC50 (hGCGR; [2]) | EC50 (hGCGR; [3]) | EC50 (hGLP-1R) | EC50 (hGIPR; [2]) | Emax (hGIPR; [4]) | Ki [1] | EC50 (hGIPR; [3]) | Emax (hGIPR; HEK293, percent of maximal response to GIP(1-42)NH2, 37° C., 0.1% bovine casein, arithmetic mean) |
| --- | --- | --- | --- | --- | --- | --- | --- | --- |
| CCCCCCCCCCCCCC(=O)N[C@@H](CCC(=O)NCCOCCOCC(=O)NCCOCCOCC(=O)NCCCC[C@H](NC(=O)CNC(=O)CNC(=O)[C@H](CCC(=O)O)NC(=O)[C@@H](NC(=O)[C@H](CC(C)C)NC(=O)[C@](C)(Cc1ccc(O)cc1)NC(=O)[C@@H](CCC(=O)O)NC(=O)[C@@H](NC(=O)[C@H](Cc1ccccc1)NC(=O)[C@H](CCC(=O)O)NC(=O)C(C)(C)NC(=O)[C@H](CCC(N)=O)NC(=O)[C@H](C)NC(=O)[C@H](CCCCNC(=O)COCCOCCNC(=O)COCCOCCNC(=O)CC[C@H](NC(=O)CCCCCCCCCCCCC)C(=O)O)NC(=O)[C@H](CCCN)NC(=O)[C@H](CC(=O)O)NC(=O)[C@H](CC(C)C)NC(=O)[C@](C)(CC(C)C)NC(=O)[C@@H](NC(=O)[C@H](CO)NC(=O)[C@H](Cc1ccncc1)NC(=O)[C@H](CC(=O)O)NC(=O)[C@H](CO)NC(=O)[C@@H](NC(=O)[C@](C)(Cc1ccccc1F)NC(=O)[C@@H](NC(=O)CNC(=O)[C@H](CCC(=O)O)NC(=O)C(C)(C)NC(=O)[C@@H](N)Cc1ccc(O)cc1)[C@@H](C)O)[C@@H](C)O)[C@@H](C)CC)[C@@H](C)CC)[C@@H](C)CC)C(=O)N[C@@H](CO)C(=O)N[C@@H](CO)C(=O)NCC(=O)N[C@@H](C)C(=O)N1CCC[C@H]1C(=O)N1CCC[C@H]1C(=O)N1CCC[C@H]1C(=O)N[C@@H](CO)C(N)=O)C(=O)O [Example 8] | > 9950 nM | > 9950 nM | 8 nM | 0.635 nM | 91.3 ± 3.11% | 0.024 nM | – | – |
| CCCCCCCCCCCCCCCC(=O)N[C@@H](CCC(=O)NCCOCCOCC(=O)NCCOCCOCC(=O)NCCCC[C@H](NC(=O)[C@H](CO)NC(=O)[C@@H]1CCCN1C(=O)[C@@H]1CCCN1C(=O)[C@@H]1CCCN1C(=O)[C@H](C)NC(=O)CNC(=O)[C@H](CO)NC(=O)[C@H](CO)NC(=O)[C@@H]1CCCN1C(=O)CNC(=O)CNC(=O)[C@H](CCC(=O)O)NC(=O)[C@@H](NC(=O)[C@H](CC(C)C)NC(=O)[C@](C)(Cc1ccc(O)cc1)NC(=O)[C@@H](CCC(=O)O)NC(=O)[C@@H](NC(=O)[C@H](Cc1ccccc1)NC(=O)[C@H](CCC(=O)O)NC(=O)C(C)(C)NC(=O)[C@H](CCC(N)=O)NC(=O)[C@H](C)NC(=O)[C@H](CCCCNC(=O)COCCOCCNC(=O)COCCOCCNC(=O)CC[C@H](NC(=O)CCCCCCCCCCCCCCC)C(=O)O)NC(=O)[C@H](CCCN)NC(=O)[C@H](CC(=O)O)NC(=O)[C@H](CC(C)C)NC(=O)[C@](C)(CC(C)C)NC(=O)[C@@H](NC(=O)[C@H](CO)NC(=O)[C@H](Cc1ccncc1)NC(=O)[C@H](CC(=O)O)NC(=O)[C@H](CO)NC(=O)[C@@H](NC(=O)[C@](C)(Cc1ccccc1F)NC(=O)[C@@H](NC(=O)CNC(=O)[C@H](CCC(=O)O)NC(=O)C(C)(C)NC(=O)[C@@H](N)Cc1ccc(O)cc1)[C@@H](C)O)[C@@H](C)O)[C@@H](C)CC)[C@@H](C)CC)[C@@H](C)CC)C(N)=O)C(=O)O [Example 25] | > 9950 nM | > 9950 nM | 1.11 nM | 0.274 nM | 94.3 ± 1.73% | 0.0293 nM | – | – |
| CCCCCCCCCCCCCCCC(=O)N[C@@H](CCC(=O)NCCOCCOCC(=O)NCCOCCOCC(=O)NCCCC[C@H](NC(=O)CNC(=O)CNC(=O)[C@H](CCCCNC(=O)COCCOCCNC(=O)COCCOCCNC(=O)CC[C@H](NC(=O)CCCCCCCCCCCCCCC)C(=O)O)NC(=O)[C@@H](NC(=O)[C@H](CC(C)C)NC(=O)[C@](C)(Cc1ccc(O)cc1)NC(=O)[C@@H](CCC(=O)O)NC(=O)[C@@H](NC(=O)[C@H](Cc1ccccc1)NC(=O)[C@H](CCC(=O)O)NC(=O)C(C)(C)NC(=O)[C@H](CCC(N)=O)NC(=O)[C@H](C)NC(=O)[C@@H](NC(=O)[C@H](CCCN)NC(=O)[C@H](CC(=O)O)NC(=O)[C@H](CC(C)C)NC(=O)[C@](C)(CC(C)C)NC(=O)[C@@H](NC(=O)[C@H](CO)NC(=O)[C@H](Cc1ccncc1)NC(=O)[C@H](CC(=O)O)NC(=O)[C@H](CO)NC(=O)[C@@H](NC(=O)[C@](C)(Cc1ccccc1F)NC(=O)[C@@H](NC(=O)CNC(=O)[C@H](CCC(=O)O)NC(=O)C(C)(C)NC(=O)[C@@H](N)Cc1ccc(O)cc1)[C@@H](C)O)[C@@H](C)O)[C@@H](C)CC)[C@@H](C)CC)[C@@H](C)CC)[C@@H](C)CC)C(=O)N[C@@H](CO)C(=O)N[C@@H](CO)C(=O)NCC(=O)N[C@@H](C)C(=O)N1CCC[C@H]1C(=O)N1CCC[C@H]1C(=O)N1CCC[C@H]1C(=O)N[C@@H](CO)C(N)=O)C(=O)O [Example 26] | > 9950 nM | > 9950 nM | 3.93 nM | 1.2 nM | 95.4 ± 2.54% | 0.0863 nM | 0.0218 nM | – |
| CC[C@H](C)[C@H](NC(=O)[C@H](CC(C)C)NC(=O)[C@](C)(Cc1ccc(O)cc1)NC(=O)[C@@H](CCC(=O)O)NC(=O)[C@@H](NC(=O)[C@H](Cc1ccccc1)NC(=O)[C@H](CCC(=O)O)NC(=O)C(C)(C)NC(=O)[C@H](CCC(N)=O)NC(=O)[C@H](C)NC(=O)[C@H](CCCCNC(=O)[C@@H](N)CCCCNC(=O)COCCOCCNC(=O)CC[C@H](NC(=O)CCCCCCCCCCCCC(=O)O)C(=O)O)NC(=O)[C@H](CCCN)NC(=O)[C@H](CC(=O)O)NC(=O)[C@H](CC(C)C)NC(=O)[C@](C)(CC(C)C)NC(=O)[C@@H](NC(=O)[C@H](CO)NC(=O)[C@H](Cc1ccncc1)NC(=O)[C@H](CC(=O)O)NC(=O)[C@H](CO)NC(=O)[C@@H](NC(=O)[C@](C)(Cc1ccccc1F)NC(=O)[C@@H](NC(=O)CNC(=O)[C@H](CCC(=O)O)NC(=O)C(C)(C)NC(=O)[C@@H](N)Cc1ccc(O)cc1)[C@@H](C)O)[C@@H](C)O)[C@@H](C)CC)[C@@H](C)CC)C(=O)N[C@@H](CCC(=O)O)C(=O)NCC(=O)NCC(=O)N[C@@H](CCCCNC(=O)[C@@H](N)CCCCNC(=O)COCCOCCNC(=O)CC[C@H](NC(=O)CCCCCCCCCCCCC(=O)O)C(=O)O)C(=O)N[C@@H](CO)C(=O)N[C@@H](CO)C(=O)NCC(=O)N[C@@H](C)C(=O)N1CCC[C@H]1C(=O)N1CCC[C@H]1C(=O)N1CCC[C@H]1C(=O)N[C@@H](CO)C(N)=O [Example 36] | > 9950 nM | > 9950 nM | 10.9 nM | 0.408 nM | 91.4 ± 0.667% | 0.103 nM | 0.0185 nM | 95.4 ± 2.02% |
